Experimental data taken from paper PMC8851638 (ACS Omega, 2022).
Converted amounts (≈) assume the structure as drawn. “And” between values parts separate entries of the source, which are not always exact repeats. Equal entries are not always repeated.

Key:
[1] = test system: S. epidermidis biofilm; test: Staphylococcus biofilm mass reduction; format: cell-based; conditions: at their MIC
[2] = test system: S. epidermidis; test: Single-step resistance selection; format: cell-based, Staphylococcus epidermidis; conditions: 4 × MIC, 48 h
[3] = test system: C. albicans200 (MDR00200); test: Agar well-diffusion antimicrobial sensitivity assay; format: cell-based, Candida albicans; conditions: Candida albicans, read-out: Inhibition Zone (IZ)
[4] = test system: C. albicans100; test: Single-step resistance selection; format: cell-based, Candida albicans; conditions: 4 × MIC, 48 h
[5] = test system: E. coli (MDR00501); test: MIC and MBC by broth microdilution; format: cell-based
[6] = test system: A. baumannii; test: Single-step resistance selection; format: cell-based; conditions: 4 × MIC, 48 h
[7] = test system: B. subtilis (MDR00423); test: MIC and MBC by broth microdilution; format: cell-based
[8] = test system: C. albicans200 (MDR00200); test: MIC and MFC by broth microdilution; format: cell-based, Candida albicans
[9] = test system: B. subtilis; test: Single-step resistance selection; format: cell-based; conditions: 4 × MIC, 48 h
[10] = test system: C. albicans200; test: Single-step resistance selection; format: cell-based, Candida albicans; conditions: 4 × MIC, 48 h
[11] = test system: C. albicans200; test: Checkerboard combination assay with Ketoconazole; format: cell-based, Candida albicans
[12] = test system: S. epidermidis (MDR00223); test: MIC and MBC by broth microdilution; format: cell-based, Staphylococcus epidermidis
[13] = test system: S. aureus; test: Single-step resistance selection; format: cell-based, Staphylococcus aureus; conditions: 4 × MIC, 48 h
[14] = test system: A. baumannii; test: Checkerboard combination assay with Ciprofloxacin; format: cell-based
[15] = test system: E. coli; test: Checkerboard combination assay with Ciprofloxacin; format: cell-based
[16] = biological target: T1, dihydrofolate reductase (DHFR) (Homo sapiens, UniProt P00374); test: DHFR inhibition; format: biochemical
T1 sequence (P00374 1-187): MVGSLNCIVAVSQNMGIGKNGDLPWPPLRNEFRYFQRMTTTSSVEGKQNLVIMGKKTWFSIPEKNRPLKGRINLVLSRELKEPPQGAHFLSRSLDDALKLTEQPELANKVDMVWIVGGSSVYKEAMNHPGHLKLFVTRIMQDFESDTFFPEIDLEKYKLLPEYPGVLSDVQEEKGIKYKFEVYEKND

[17] = test system: BNL: mouse normal liver cells; test: In vitro cytotoxicity on normal cell line; format: cell-based
[18] = In vitro cytotoxicity on normal cell line; format: cell-based, mouse; conditions: mouse, BNL normal liver cells
[19] = test system: Vero: green monkey kidney; test: In vitro cytotoxicity on normal cell line; format: cell-based
[20] = In vitro cytotoxicity on normal cell line; format: cell-based, green monkey; conditions: green monkey, Vero kidney cells
[21] = test system: RBCs; test: Hemolytic assay; format: cell-based; conditions: human RBCs; compounds 1.0 mg/mL; Triton X-100 0.1% v/v; 37 °C, 35 min
[22] = test system: C. albicans100; test: Checkerboard combination assay with Ketoconazole; format: cell-based, Candida albicans
[23] = test system: S. aureus; test: Checkerboard combination assay with Ciprofloxacin; format: cell-based, Staphylococcus aureus
[24] = test system: A. baumannii (MDR00521); test: MIC and MBC by broth microdilution; format: cell-based
[25] = test system: K. pneumoniae; test: Checkerboard combination assay with Ciprofloxacin; format: cell-based
[26] = test system: S. aureus (MDR00231); test: MIC and MBC by broth microdilution; format: cell-based, Staphylococcus aureus
[27] = test system: K. pneumoniae (MDR00244); test: MIC and MBC by broth microdilution; format: cell-based; conditions: ratio in parentheses
[28] = test system: B. subtilis; test: Checkerboard combination assay with Ciprofloxacin; format: cell-based
[29] = test system: S. epidermidis; test: Checkerboard combination assay with Ciprofloxacin; format: cell-based, Staphylococcus epidermidis
[30] = test system: C. albicans100 (MDR00100); test: Agar well-diffusion antimicrobial sensitivity assay; format: cell-based, Candida albicans; conditions: Candida albicans, read-out: Inhibition Zone (IZ)
[31] = test system: S. aureus (MDR00231); test: as above; format: cell-based, Staphylococcus aureus; conditions: Staphylococcus aureus, read-out: Inhibition Zone (IZ)
[32] = biological target: E. coli DNA gyrase (Escherichia coli, UniProt P0AES4+P0AES6); test: DNA gyrase inhibition; format: biochemical
[33] = test system: C. albicans100 (MDR00100); test: MIC and MFC by broth microdilution; format: cell-based, Candida albicans
[34] = test system: K. pneumoniae; test: Single-step resistance selection; format: cell-based; conditions: 4 × MIC, 48 h
[35] = test system: S. epidermidis (MDR00223); test: Agar well-diffusion antimicrobial sensitivity assay; format: cell-based, Staphylococcus epidermidis; conditions: Staphylococcus epidermidis, read-out: Inhibition Zone (IZ)
[36] = test system: S. aureus biofilm; test: Staphylococcus biofilm mass reduction; format: cell-based; conditions: at their MIC
[37] = test system: clinical pathogenic isolates; test: Single-step resistance selection, whole panel; format: cell-based; conditions: 4 × MIC
[38] = test system: E. coli (MDR00501); test: Agar well-diffusion antimicrobial sensitivity assay; format: cell-based; conditions: Escherichia coli, read-out: Inhibition Zone (IZ)
[39] = test system: E. coli; test: Single-step resistance selection; format: cell-based; conditions: 4 × MIC, 48 h
[40] = test system: H9C2: rat heart/myocardium; test: In vitro cytotoxicity on normal cell line; format: cell-based
[41] = In vitro cytotoxicity on normal cell line; format: cell-based, rat; conditions: rat, H9C2 heart/myocardium cells

Sequence of E. coli DNA gyrase (P0AES4 whole entry, one chain of several): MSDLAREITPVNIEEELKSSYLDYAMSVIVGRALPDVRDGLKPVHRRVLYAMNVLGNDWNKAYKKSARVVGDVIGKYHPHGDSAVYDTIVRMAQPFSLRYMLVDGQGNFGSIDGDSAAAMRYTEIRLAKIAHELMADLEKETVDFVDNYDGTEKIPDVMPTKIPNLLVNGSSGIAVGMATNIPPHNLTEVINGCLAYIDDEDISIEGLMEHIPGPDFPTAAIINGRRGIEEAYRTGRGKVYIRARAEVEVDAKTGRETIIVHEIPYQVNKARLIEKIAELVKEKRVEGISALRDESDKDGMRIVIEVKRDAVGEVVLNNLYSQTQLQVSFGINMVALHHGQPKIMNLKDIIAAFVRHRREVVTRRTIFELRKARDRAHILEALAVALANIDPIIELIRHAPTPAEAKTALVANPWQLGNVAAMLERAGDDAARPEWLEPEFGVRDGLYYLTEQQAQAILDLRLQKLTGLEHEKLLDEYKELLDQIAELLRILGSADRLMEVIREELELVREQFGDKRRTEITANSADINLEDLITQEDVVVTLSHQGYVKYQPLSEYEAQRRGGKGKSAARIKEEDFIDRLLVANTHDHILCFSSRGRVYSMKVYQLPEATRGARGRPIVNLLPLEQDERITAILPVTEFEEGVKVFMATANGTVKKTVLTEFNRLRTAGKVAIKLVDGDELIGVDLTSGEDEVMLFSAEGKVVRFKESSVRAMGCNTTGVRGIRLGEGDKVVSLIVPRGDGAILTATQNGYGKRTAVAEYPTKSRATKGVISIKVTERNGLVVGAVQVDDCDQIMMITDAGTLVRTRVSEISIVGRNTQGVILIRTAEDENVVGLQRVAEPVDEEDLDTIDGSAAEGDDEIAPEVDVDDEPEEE

N#CC(=Cc1ccccc1O)C1=NC(=O)C(=Cc2cn(-c3ccccc3)nc2-c2ccccc2)S1 [Compound 5a, 3-(2-Hydroxyphenyl)-2-(5-((1,3-diphenyl-1H-pyrazol-4-yl)methylene)-4-oxo-4,5-dihydro-thiazol-2-yl)acrylonitrile]
reduction of biofilm formation [1]: 79.5% | Single-step resistance frequency (mutation frequency) [2]: 2.71 × 10^–8 | zone of inhibition at 100000 µg/mL [3]: 30 ± 0.6 mm | Single-step resistance frequency (mutation frequency) [4]: 2.10 × 10^–8 | MIC (mean ± SEM) ([5]; E. coli, broth microdilution): 0.46 ± 0.3 µg/mL (≈ 0.969 µM) | MBC/MIC ([5]; E. coli, ratio in parentheses): 1 | MIC ([5]; Escherichia coli, read-out: MIC (mean ± SEM), E. coli, broth microdilution): 0.46 µg/mL (≈ 0.969 µM) | Single-step resistance frequency (mutation frequency) [6]: 1.80 × 10^–8 | MBC/MIC ([7]; B. subtilis, ratio in parentheses): 1 | MIC ([7]; Bacillus subtilis, read-out: MIC (mean ± SEM), B. subtilis, broth microdilution): 0.49 ± 0.2 µg/mL (≈ 1.03 µM) | MIC (mean ± SEM) ([8]; C. albicans200, broth microdilution): 0.24 ± 0.4 µg/mL (≈ 0.506 µM) | MFC/MIC ([8]; C. albicans200, ratio in parentheses): 1 | MIC ([8]; Candida albicans, read-out: MIC (mean ± SEM), C. albicans200, broth microdilution): 0.24 µg/mL (≈ 0.506 µM) | Single-step resistance frequency (mutation frequency) [9]: 2.93 × 10^–7 | Single-step resistance frequency (mutation frequency) [10]: 4.40 × 10^–7 | combination effect [11]: S (S: synergism) | fractional inhibitory concentration index (FICI) [11]: 0.5 | MBC/MIC ([12]; S. epidermidis, ratio in parentheses): 0.5 | MIC ([12]; Staphylococcus epidermidis, read-out: MIC (mean ± SEM), S. epidermidis, broth microdilution): 0.49 ± 0.4 µg/mL (≈ 1.03 µM) | Single-step resistance frequency (mutation frequency) [13]: 3.22 × 10^–7 | combination effect [14]: S (S: synergism) | fractional inhibitory concentration index (FICI) [14]: 0.5 | combination effect [15]: S (S: synergism) | fractional inhibitory concentration index (FICI) [15]: 0.5 | IC50 [16]: 1.11 ± 0.15 µM | Selectivity index against DHFR ([17]; IC50 of BNL / IC50 of DHFR): 93.23 | Selectivity index against DNA gyrase ([17]; IC50 of BNL / IC50 of DNA gyrase): 4.67 | IC50 at 72 h [18]: 103 ± 1.44 µM | Selectivity index against DHFR ([19]; IC50 of Vero / IC50 of DHFR): 72.28 | Selectivity index against DNA gyrase ([19]; IC50 of Vero / IC50 of DNA gyrase): 3.62 | IC50 at 72 h [20]: 80.2 ± 1.79 µM | %lysis of RBCs [21]: 9.67% and 9.67 ± 0.31% | combination effect [22]: S (S: synergism) | fractional inhibitory concentration index (FICI) [22]: 0.25 | combination effect [23]: S (S: synergism) | fractional inhibitory concentration index (FICI) [23]: 0.5 | MIC (mean ± SEM) ([24]; broth microdilution): 0.48 ± 0.5 µg/mL (≈ 1.01 µM) | MBC/MIC ([24]; ratio in parentheses): 0.5 | combination effect [25]: S (S: synergism) | fractional inhibitory concentration index (FICI) [25]: 0.25 | MBC/MIC ([26]; S. aureus, ratio in parentheses): 1 | MIC ([26]; Staphylococcus aureus, read-out: MIC (mean ± SEM), S. aureus, broth microdilution): 0.48 ± 0.1 µg/mL (≈ 1.01 µM) | MBC/MIC [27]: 1 | combination effect [28]: S (S: synergism) | fractional inhibitory concentration index (FICI) [28]: 0.25 | combination effect [29]: S (S: synergism) | fractional inhibitory concentration index (FICI) [29]: 0.5 | zone of inhibition at 100000 µg/mL [30]: 28 ± 0.4 mm | zone of inhibition at 100000 µg/mL [31]: 29 ± 0.22 mm | IC50 [32]: 22.1 ± 0.3 µM | MIC (mean ± SEM) ([33]; C. albicans100, broth microdilution): 0.43 ± 0.5 µg/mL (≈ 0.906 µM) | MFC/MIC ([33]; C. albicans100, ratio in parentheses): 0.5 | MIC ([33]; Candida albicans, read-out: MIC (mean ± SEM), C. albicans100, broth microdilution): 0.43 µg/mL (≈ 0.906 µM) | Single-step resistance frequency (mutation frequency) [34]: 1.90 × 10^–8 | zone of inhibition at 100000 µg/mL [35]: 27 ± 0.24 mm | reduction of biofilm formation [36]: 89.1% | mutation frequency, range over panel [37]: 2.21 × 10^–7 to 2.71 × 10^–8 | zone of inhibition at 100000 µg/mL [38]: 28 ± 0.14 mm | Single-step resistance frequency (mutation frequency) [39]: 2.21 × 10^–7 | Selectivity index against DHFR ([40]; IC50 of H9C2 / IC50 of DHFR): 89.37 | Selectivity index against DNA gyrase ([40]; IC50 of H9C2 / IC50 of DNA gyrase): 4.48 | IC50 at 72 h [41]: 99.2 ± 2.29 µM
